Laboratory results reported in the supplement of paper PMC10307832.

Legend:
Test in all cases: relative viability (nuclei count vs DMSO), 5 days (fraction); higher = more cells survive
Salubrinal + Lapatinib = compound: O=C(/C=C/c1ccccc1)NC(NC(=S)Nc1cccc2cccnc12)C(Cl)(Cl)Cl [Salubrinal] + CS(=O)(=O)CCNCc1ccc(-c2ccc3ncnc(Nc4ccc(OCc5cccc(F)c5)c(Cl)c4)c3c2)o1 [Lapatinib] (partner 2 µM)
Summary of the method: (§1)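 Values are medians from duplicate plates. Each reflects relative viability, defined as the nuclei count of treated wells over that of vehicle wells. Lung cancer cell lines in 1536-well plates were pin-tool dosed one day after seeding with one drug alone or with a fixed anchor-drug dose plus five library-drug doses (not always all listed) in √10 steps, then fixed, stained and imaged at 4× after 5 days.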

[1] = compound: Cc1ccc2nc(NCCN)c3ncc(C)n3c2c1 + N=C(N)NC(=N)NCCc1ccccc1 [Phenformin] (partner 250 µM)
Summary of the method: as §1

[2] = compound: Cc1ccc2nc(NCCN)c3ncc(C)n3c2c1 + O=C(CCCCCCC(=O)Nc1ccccc1)NO [Vorinostat] (partner 1 µM)
Summary of the method: as §1

Salubrinal + Vorinostat = compound: O=C(/C=C/c1ccccc1)NC(NC(=S)Nc1cccc2cccnc12)C(Cl)(Cl)Cl [Salubrinal] + O=C(CCCCCCC(=O)Nc1ccccc1)NO [Vorinostat] (partner 1 µM)
Summary of the method: as §1

Cell Line	relative viability (Salubrinal + Lapatinib; first compound 0.08 µM)	relative viability (Salubrinal + Lapatinib; first compound 0.253 µM)	relative viability (Salubrinal + Lapatinib; first compound 0.8 µM)	relative viability (Salubrinal + Lapatinib; first compound 2.53 µM)	relative viability (Salubrinal + Lapatinib; first compound 8 µM)	relative viability ([1]; first compound 0.04 µM)	relative viability ([1]; first compound 0.1265 µM)	relative viability ([1]; first compound 0.4 µM)	relative viability ([1]; first compound 1.265 µM)	relative viability ([1]; first compound 4 µM)	relative viability ([2]; first compound 0.04 µM)	relative viability ([2]; first compound 0.1265 µM)	relative viability ([2]; first compound 0.4 µM)	relative viability ([2]; first compound 1.265 µM)	relative viability ([2]; first compound 4 µM)	relative viability (Salubrinal + Vorinostat; first compound 0.08 µM)	relative viability (Salubrinal + Vorinostat; first compound 0.253 µM)	relative viability (Salubrinal + Vorinostat; first compound 0.8 µM)	relative viability (Salubrinal + Vorinostat; first compound 2.53 µM)	relative viability (Salubrinal + Vorinostat; first compound 8 µM)
NCI-H1975	1.04	0.594	0.967	0.928	0.798	0.415	0.394	0.432	0.414	0.355	0.733	0.711	0.753	0.708	0.582	0.742	0.616	0.703	0.696	0.676
CAL-12T	0.804	0.688	0.629	0.663	0.636	0.567	0.491	0.536	0.59	0.542	0.77	0.711	0.882	0.65	0.629	0.903	0.676	0.989	0.681	0.672
NCI-H2342	–	–	–	–	–	0.592	0.816	0.636	0.581	0.559	0.869	0.689	0.701	0.784	0.704	0.666	0.631	0.715	0.668	0.768
HCC-44	0.91	0.743	1.1	0.97	0.939	0.186	0.247	0.157	0.184	0.146	0.981	1.05	1.09	1.08	1.11	1.04	1.1	1.13	1	1.04
EKVX	0.2	0.239	0.199	0.181	0.216	0.25	0.236	0.241	0.239	0.248	0.835	0.676	0.603	0.752	0.737	0.769	0.606	0.863	0.668	0.665
NCI-H1651	1.01	0.77	1.07	–	0.816	0.351	0.273	0.315	0.358	0.352	0.639	0.558	0.564	0.539	0.483	0.597	0.478	0.669	0.527	0.546
NCI-H1648	–	–	–	–	–	–	–	–	–	–	0.337	0.458	0.362	0.4	0.317	0.431	0.419	0.649	0.345	0.242
NCI-H1703	1.24	–	1.24	0.917	0.892	–	–	–	–	–	–	–	–	–	–	–	–	–	–	–
Calu-6	1.28	1.03	1.27	1.08	1.06	–	–	–	–	–	–	–	–	–	–	–	–	–	–	–
EBC-1	0.191	0.289	0.187	0.167	0.198	–	–	–	–	–	–	–	–	–	–	–	–	–	–	–
SW 1573	1.02	1.14	1.09	1.11	1.16	0.371	0.368	0.395	0.424	0.231	0.85	0.903	0.669	0.865	0.65	0.852	0.686	0.778	0.55	0.62
A-427	1.09	0.966	1.11	0.961	1.03	0.388	0.308	0.35	0.265	0.296	0.9	0.844	0.852	0.876	0.89	0.859	0.905	0.896	0.814	0.827
NCI-H2347	0.736	0.903	0.967	0.923	0.891	0.521	0.55	0.513	0.345	0.417	0.577	0.614	0.526	0.672	0.729	0.558	0.514	0.608	0.686	0.639
NCI-H1355	1.09	1.03	0.996	1.01	1.03	0.484	0.476	0.441	0.391	0.42	0.721	0.599	0.633	0.634	0.671	0.684	0.636	0.715	0.657	0.645
NCI-H1944	0.583	0.899	0.804	0.902	0.846	0.201	0.196	0.201	0.187	0.195	0.639	0.581	0.358	0.491	0.581	0.69	0.54	0.662	0.504	0.645
PC-3 [JPC-3]	0.436	0.423	0.459	0.484	0.472	0.503	0.475	0.459	0.497	0.423	0.825	0.752	0.709	0.774	0.734	0.713	0.71	1.07	0.934	0.762
NCI-H2228	1.29	0.775	1.35	1.08	0.743	0.29	0.525	0.452	0.284	0.244	0.639	0.589	0.858	0.595	0.544	0.99	–	0.652	0.659	0.642
HOP-62	1.06	0.927	1.01	1.16	0.968	0.676	0.643	0.575	0.657	0.653	0.647	0.752	0.401	0.602	0.663	0.657	0.498	0.627	0.563	0.616
HARA	0.709	0.651	0.819	0.748	0.828	0.437	0.449	0.388	0.342	0.453	0.473	0.648	0.422	0.499	0.426	0.617	0.631	0.597	0.478	0.475
